The nature of data set [1]: Metabolic stability in rat liver microsomes assessed as half life. Format: ADME, Microsome. A general note: Liver microsomes are a subcellular fraction often used to study metabolism.
For another data set, the target named is Histone deacetylase. The data set is described as follows: Inhibition of HDAC in human HeLa cell nuclear extract using Boc-Lys(Ac)-AMC as substrate. Format: subcellular, Nucleus.
A short description of data set [2]: Metabolic stability in human liver microsomes assessed as half life. Format: ADME, Microsome.
The nature of data set [3]: Toxicity in female BALB/c mouse assessed as maximum tolerable dose. Particulars: in vivo.
The nature of data set [4]: Half life in BALB/c mouse at 50 mg/kg, po. Particulars: in vivo. Format: ADME, organism-based.
Data set [5] in a line: Tmax in BALB/c mouse at 50 mg/kg, po. Format: ADME, organism-based. The following applies: in vivo.
Data set [6] in a line: Cmax in BALB/c mouse at 50 mg/kg, po. Format: ADME, organism-based. The following applies: in vivo.
Data set [7] in a line: Oral bioavailability in BALB/c mouse at 50 mg/kg. Format: ADME, organism-based. The following applies: in vivo.
In the next data set the test system is U-266. As to the kind of experiment: cells. Format: functional, cell-based. The following applies: Homo sapiens, U-266, 48 h.
The test system of the next data set is U-937. As to the kind of experiment: cells. Format: functional, cell-based. The following applies: Homo sapiens, U-937, 48 h.
Data set [8] has as its system HepG2. As to the kind of experiment: cells. Particulars: Homo sapiens, HepG2, 48 h. Format: functional, cell-based.
In a further data set the test system is Calu-3. The data set is described as follows: cells. Format: functional, cell-based. Particulars: Homo sapiens, Calu-3, 48 h.
The nature of a further data set: cells. Format: functional, cell-based. The following applies: Homo sapiens, SPCA1, 48 h.
The test system of another data set is MDA-MB-231. As to the kind of experiment: cells. Format: functional, cell-based. Particulars: Homo sapiens, MDA-MB-231, 48 h.
The test system of the next data set is MDA-MB-468. The data set is described as follows: cells. Format: functional, cell-based. Particulars: Homo sapiens, MDA-MB-468, 48 h.
The test system of another data set is SK-OV-3. As to the kind of experiment: cells. Format: functional, cell-based. The following applies: Homo sapiens, SK-OV-3, 48 h.
Another data set has as its system K562. The data set is described as follows: cells. The following applies: Homo sapiens, K562, 48 h. Format: functional, cell-based.
In the next data set the test system is PANC-1. The data set is described as follows: cells. Format: functional, cell-based. Particulars: Homo sapiens, PANC-1, 48 h.
A further data set concerns the target Histone deacetylase 3 (Homo sapiens, UniProt O15379). The data set is described as follows: Inhibition of recombinant HDAC3 (unknown origin) using Boc-Lys (acetyl)-AMC as substrate preincubated for 1 hr followed by substrate addition and measured after 2 hrs by fluorescence based analysis.
In data set [9] the test system is HepG2. As to the kind of experiment: animal or person. Format: functional, Homo sapiens. The following applies: Mus musculus, HepG2, po, 384 h, route ig, time 16 day.
Data set [10] deals with T1, Protein deacetylase HDAC6 (Homo sapiens, UniProt Q9UBN7).
T1 sequence (Q9UBN7 whole entry): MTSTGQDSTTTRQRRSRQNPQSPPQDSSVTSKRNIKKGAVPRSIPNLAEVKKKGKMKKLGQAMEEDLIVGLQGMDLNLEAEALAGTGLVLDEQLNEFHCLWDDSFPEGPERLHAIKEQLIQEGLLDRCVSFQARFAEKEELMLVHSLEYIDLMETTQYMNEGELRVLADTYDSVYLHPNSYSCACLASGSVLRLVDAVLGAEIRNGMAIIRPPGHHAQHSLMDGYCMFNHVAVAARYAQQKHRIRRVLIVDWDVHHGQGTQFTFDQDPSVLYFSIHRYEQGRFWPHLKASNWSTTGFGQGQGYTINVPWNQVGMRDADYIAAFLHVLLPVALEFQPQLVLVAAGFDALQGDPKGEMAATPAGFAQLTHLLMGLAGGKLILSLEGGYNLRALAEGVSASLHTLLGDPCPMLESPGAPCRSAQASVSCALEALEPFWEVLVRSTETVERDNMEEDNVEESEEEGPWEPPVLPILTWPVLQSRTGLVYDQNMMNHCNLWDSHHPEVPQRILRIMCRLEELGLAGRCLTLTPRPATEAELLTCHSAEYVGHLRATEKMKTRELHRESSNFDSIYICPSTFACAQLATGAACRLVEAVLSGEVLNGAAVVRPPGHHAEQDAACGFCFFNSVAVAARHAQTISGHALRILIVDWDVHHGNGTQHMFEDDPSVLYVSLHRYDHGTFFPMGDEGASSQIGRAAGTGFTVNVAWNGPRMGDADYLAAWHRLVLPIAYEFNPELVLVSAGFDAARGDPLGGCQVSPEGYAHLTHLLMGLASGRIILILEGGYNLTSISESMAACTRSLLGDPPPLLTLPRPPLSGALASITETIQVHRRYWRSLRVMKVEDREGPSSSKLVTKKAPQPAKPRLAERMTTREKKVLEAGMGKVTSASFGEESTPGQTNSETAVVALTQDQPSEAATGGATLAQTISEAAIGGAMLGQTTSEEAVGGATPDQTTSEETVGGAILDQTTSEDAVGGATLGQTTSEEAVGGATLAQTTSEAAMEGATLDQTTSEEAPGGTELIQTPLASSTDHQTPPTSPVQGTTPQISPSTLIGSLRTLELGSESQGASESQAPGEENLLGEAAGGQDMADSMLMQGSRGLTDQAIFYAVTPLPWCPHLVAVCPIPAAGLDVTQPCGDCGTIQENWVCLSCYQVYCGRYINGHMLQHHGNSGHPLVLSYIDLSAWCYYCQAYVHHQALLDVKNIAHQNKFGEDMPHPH
The data set is described as follows: Inhibition of HDAC6 (unknown origin).

The subject of another data set is A549. The data set is described as follows: Antiproliferative activity against human A549 cells.
The test system of data set [11] is HepG2. As to the kind of experiment: Antiproliferative activity against human HepG2 cells. Format: functional, cell-based.
The next data set has as its target Histone deacetylase 1 (Homo sapiens, UniProt Q13547). As to the kind of experiment: Inhibition of HDAC1 (unknown origin).
Another data set has as its system HT-29. As to the kind of experiment: Antiproliferative activity against human HT-29 cells. Format: functional, cell-based.
Data set [12] is described as follows: Cytotoxicity against human L02 cells. Format: toxicity, cell-based.
A short description of data set [13]: Cytotoxicity against human NCM460 cells. Format: toxicity, cell-based.
Data set [14] deals with HCT-116. As to the kind of experiment: cells. Particulars: Homo sapiens.
Description: Antiproliferative activity against human HCT-116 cells
Data set [15] deals with KYSE-450. As to the kind of experiment: Antiproliferative activity against human KYSE-450 cells. Format: functional, cell-based.
The test system of data set [16] is MGC-803. The data set is described as follows: Antiproliferative activity against human MGC-803 cells. Format: functional, cell-based.
The test system of a further data set is BGC-823. As to the kind of experiment: Antiproliferative activity against human BGC-823 cells. Format: functional, cell-based.
In another data set the test system is HGC-27. The data set is described as follows: Antiproliferative activity against human HGC-27 cells. Format: functional, cell-based.
Data set [17] deals with MGC-803. The data set is described as follows: Antitumor activity against human MGC-803 cells xenografted in mouse assessed as tumor growth inhibition at 20 mg/kg relative to control. Format: functional. The following applies: read-out: TGI. On the technique in general: Xenograft models place foreign cells or tissue in a host animal.
In data set [18] the test system is KYSE-450. As to the kind of experiment: Potency index, ratio of vorinostat IC50 to test compound IC50 for antiproliferative activity against human KYSE-450 cells. Format: functional.
For data set [19], the system named is HCT-116. As to the kind of experiment: Potency index, ratio of vorinostat IC50 to test compound IC50 for antiproliferative activity against human HCT-116 cells. Format: functional.
The test system of data set [20] is KYSE-450. As to the kind of experiment: Potency index, ratio of TAE-226 IC50 to test compound IC50 for antiproliferative activity against human KYSE-450 cells. Format: functional.
Data set [21] concerns HCT-116. As to the kind of experiment: Potency index, ratio of TAE-226 IC50 to test compound IC50 for antiproliferative activity against human HCT-116 cells. Format: functional.
For the next data set, the target named is Focal adhesion kinase 1 (Homo sapiens, UniProt Q05397). The data set is described as follows: Inhibition of FAK (unknown origin).
The subject of data set [22] is RPMI-8226. The data set is described as follows: Antiproliferative activity against human RPMI-8226 cells assessed as inhibition of cell growth incubated for 48 hrs by MTT assay. Particulars: RPMI-8226, 48 h. Format: functional, cell-based. A general note: Formazan colour is commonly taken as a measure of viable cells.
A further data set relates to MM1.S. As to the kind of experiment: Antiproliferative activity against human MM1.S cells assessed as inhibition of cell growth incubated for 48 hrs by MTT assay. Format: functional, cell-based.
A short description of data set [23]: Cytotoxicity against HEK293 cells assessed as inhibition of cell growth incubated for 48 hrs by MTT assay. Format: toxicity, cell-based. The following applies: human.
Data set [24] in a line: Cytotoxicity against human L02 cells assessed as inhibition of cell growth incubated for 48 hrs by MTT assay. Format: toxicity, cell-based.
The target of data set [25] is T1, Protein deacetylase HDAC6. The data set is described as follows: Inhibition of HDAC6 (unknown origin) using Boc-Lys(acetyl)-AMC as substrate preincubated for 5 mins followed by substrate addition and measured after 30 mins by fluorescence based assay.
A short description of data set [26]: Metabolic stability in mouse liver microsomes assessed as half life at 1 uM incubated in presence of NADPH by LC-MS/MS analysis. Format: ADME, Microsome.
Data set [27] relates to RPMI-8226. The data set is described as follows: Antitumor activity against human RPMI-8226 cells xenografted in BALB/c-nu mouse assessed as reduction in tumor growth by measuring relative increment ratio T/C at 50 mg/kg/day, ip administered for 19 days and measured every 3 days by vernier caliper relative to control. Format: functional. The following applies: time 19 day.

For orientation: half-life means the time needed for the level to fall by half in the phase considered. What is called IC50 is the concentration at which inhibition is half-maximal. In general, MTD refers to the highest dose tested that stayed within the study's limit of toxicity. In general, Tmax refers to the time from dosing to the highest level. In general, Cmax refers to the peak of the concentration-time curve. As usually defined, the bioavailability is the share of a dose that reaches the circulation, judged against a reference dose that is usually intravenous. The T/C is the ratio of treated to control.

The structures appear in SMILES notation.

Chain of Histone deacetylase 1 (Q13547 whole entry): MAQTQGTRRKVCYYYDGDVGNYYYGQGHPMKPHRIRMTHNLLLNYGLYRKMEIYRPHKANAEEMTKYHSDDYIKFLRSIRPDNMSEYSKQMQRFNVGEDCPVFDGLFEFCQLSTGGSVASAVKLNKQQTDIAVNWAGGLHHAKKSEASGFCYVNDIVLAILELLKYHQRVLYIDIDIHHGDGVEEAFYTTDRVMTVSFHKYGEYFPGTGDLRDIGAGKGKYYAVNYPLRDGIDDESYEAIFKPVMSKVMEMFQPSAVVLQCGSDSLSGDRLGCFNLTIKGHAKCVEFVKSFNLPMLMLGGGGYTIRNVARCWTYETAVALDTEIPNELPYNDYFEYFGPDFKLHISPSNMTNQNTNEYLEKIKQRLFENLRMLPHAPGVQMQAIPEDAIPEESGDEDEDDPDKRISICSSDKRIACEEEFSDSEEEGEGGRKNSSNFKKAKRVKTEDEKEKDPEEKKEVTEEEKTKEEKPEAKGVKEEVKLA
Chain of Histone deacetylase 3 (O15379 whole entry): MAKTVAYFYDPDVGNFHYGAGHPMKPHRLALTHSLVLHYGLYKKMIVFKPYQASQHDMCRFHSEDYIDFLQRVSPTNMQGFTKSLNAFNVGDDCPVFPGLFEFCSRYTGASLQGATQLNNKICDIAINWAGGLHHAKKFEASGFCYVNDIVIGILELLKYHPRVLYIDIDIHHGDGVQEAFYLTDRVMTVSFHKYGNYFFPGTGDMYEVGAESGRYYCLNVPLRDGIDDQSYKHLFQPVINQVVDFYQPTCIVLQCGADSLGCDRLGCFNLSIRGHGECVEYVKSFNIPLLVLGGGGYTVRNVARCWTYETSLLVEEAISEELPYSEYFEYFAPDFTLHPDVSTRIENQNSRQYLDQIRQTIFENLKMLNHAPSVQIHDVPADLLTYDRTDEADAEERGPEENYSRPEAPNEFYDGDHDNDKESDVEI
Chain of Focal adhesion kinase 1 (Q05397 whole entry): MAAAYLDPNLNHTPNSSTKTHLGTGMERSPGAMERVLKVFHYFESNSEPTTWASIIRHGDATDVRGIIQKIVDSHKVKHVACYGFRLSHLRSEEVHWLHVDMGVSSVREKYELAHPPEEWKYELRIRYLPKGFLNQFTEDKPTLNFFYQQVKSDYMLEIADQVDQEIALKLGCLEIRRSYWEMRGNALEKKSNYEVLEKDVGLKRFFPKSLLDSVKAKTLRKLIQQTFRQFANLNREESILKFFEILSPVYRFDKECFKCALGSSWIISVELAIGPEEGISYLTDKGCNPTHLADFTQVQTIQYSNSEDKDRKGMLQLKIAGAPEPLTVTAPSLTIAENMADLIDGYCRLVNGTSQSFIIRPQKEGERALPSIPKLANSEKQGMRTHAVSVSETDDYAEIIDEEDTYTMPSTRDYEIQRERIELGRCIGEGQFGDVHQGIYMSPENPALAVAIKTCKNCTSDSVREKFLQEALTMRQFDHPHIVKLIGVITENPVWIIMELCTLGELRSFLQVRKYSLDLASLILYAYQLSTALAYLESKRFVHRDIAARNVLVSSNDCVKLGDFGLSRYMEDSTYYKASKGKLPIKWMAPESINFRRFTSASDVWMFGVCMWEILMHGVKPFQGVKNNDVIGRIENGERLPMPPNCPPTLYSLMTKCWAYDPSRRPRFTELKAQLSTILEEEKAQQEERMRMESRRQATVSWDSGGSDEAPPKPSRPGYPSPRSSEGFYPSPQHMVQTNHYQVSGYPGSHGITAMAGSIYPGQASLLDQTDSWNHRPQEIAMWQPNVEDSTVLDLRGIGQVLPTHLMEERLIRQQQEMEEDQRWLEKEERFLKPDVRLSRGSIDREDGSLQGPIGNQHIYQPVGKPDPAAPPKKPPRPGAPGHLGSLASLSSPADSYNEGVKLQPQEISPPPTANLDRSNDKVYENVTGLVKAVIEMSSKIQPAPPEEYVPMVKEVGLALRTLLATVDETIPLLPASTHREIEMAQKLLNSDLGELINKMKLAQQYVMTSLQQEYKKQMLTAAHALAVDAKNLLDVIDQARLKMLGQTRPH

Consider `CC(C)n1cnc2c(-c3cccc(OCCCC(=O)NO)c3)nc(N3CCOCC3)nc21`, for which the results for the half-life in data set [1], in data set [2] and in data set [4] were above 45 min, above 45 min and 113 min, respectively. On Histone deacetylase, this molecule had an IC50 of 35 nM. Further, in data set [3], the MTD came to 200 mg/kg. Moreover, the Tmax in [5] is 9 min. The Cmax in data set [6] amounted to 1620 ng/mL. The bioavailability in data set [7] is 21%.

On to `Cn1cc(CCCC(=O)Nc2ccc(C(=O)NO)cc2)c2ccccc21`, for which the IC50 in the data set with U-266, in the data set on U-937, with HepG2 [8], with Calu-3, in “cells” and with MDA-MB-231 was 160 nM each time. In addition, the IC50 is 160 nM in the data set with MDA-MB-468; 160 nM with SK-OV-3; 160 nM in the data set with K562; 160 nM in the data set on PANC-1; 13.9 nM on Histone deacetylase 3. In addition, in the data set on HepG2 [9], the inhibition in vivo at 50 mg/kg worked out at 33.1%.

As for `COc1ccc2c3ccnc(C)c3n(CC3CCN(c4ncc(C(=O)NO)cn4)CC3)c2c1`, the IC50 in data set [10] worked out at 450 nM; in the data set with A549, 1410 nM; with HepG2 [11], 1410 nM; against Histone deacetylase 1 it was 22 nM; with HT-29, 1410 nM; in data set [12], 11300 nM. Moreover, the IC50 turned out to be 18500 nM in [13] and 1410 nM in the data set on HCT-116 [14].

On to `CNC(=O)c1ccccc1Nc1nc(Nc2ccc(NC(=O)CCCCCCC(=O)NO)cc2)ncc1Cl`, for which the IC50 with KYSE-450 [15] worked out at 182 nM; with MGC-803 [16], 3.9 nM; in the data set on BGC-823 it was 15.4 nM; with HGC-27 it was 18.4 nM; in data set [10], 16 nM; against Focal adhesion kinase 1, 132 nM. For the same molecule, the IC50 in the data set with HCT-116 [14] was determined as 182 nM. Further, the inhibition in vivo at 20 mg/kg in the data set on MGC-803 [17] was 53.5%. For the same molecule, the “Ratio IC50” value in the data set on KYSE-450 [18], in the data set on HCT-116 [19], in the data set with KYSE-450 [20] and in the data set with HCT-116 [21] was 2.8 in each case.

On to `O=C(NO)c1ccc(CNc2ncnc3[nH]ccc23)cc1`, for which the IC50 in the data set with RPMI-8226 [22] is 620 nM; with U-266 it was 620 nM; in the data set with MM1.S, 620 nM; in data set [25] it was 10 nM. Besides, the IC50 at 48 h in data set [23] and in data set [24] was above 50000 nM in each case. The half-life at 1 µM in data set [26] was above 60 min. The T/C with RPMI-8226 [27] is on record as 70%.
